Results reported in patent US5622944A, “Testosterone prodrugs for improved drug delivery” (Affymax Technologies N.V., priority 1995, dated 1997).
Where a name gives a salt, the structure may show the parent alone.

Key:
[1] = format: in vitro ADME, mouse; conditions: for Flux, active electrotransport (ET): murine skin, active cells (ETm), 10 mM donor, 100 uA/cm^2, 6 h, 32° C.; for Enhancement in in vitro electrotransport skin flux compared to testosterone: hairless mouse skin, vs unmodified testosterone, 'nearly 10-fold enhancement or greater'
Method: In vitro electrotransport of testosterone/chemical modifier complexes across hairless mouse skin was evaluated as described in Example 28. The experiments were conducted using modified Valia-Chien cells having 1.0 ml donor and 2.5 ml receptor cells. Anodic transport was carried out using a silver wire-based salt bridge in the donor compartment and a silver chloride cathode in the receptor. Cathodic transport was effected by reversing the electrode configuration. The cells were connected in series and a constant current and temperature were supplied to each cell.
After a predetermined period of time (6 h), aliquots were removed from the receiver phase for immediate analysis by HPLC to determine cumulative flux.
The electrotransport of testosterone/chemical modifier complexes was achieved using modified Valia-Chien cells (1.0 ml donor and 2.5 ml receptor cells). Full thickness, hairless mouse skin (Charles River Labs, Wilmington, Mass.) was soaked for one hour in phosphate buffered saline (PBS, pH=7.4) before placing between each compartment (dermal side of skin facing toward receptor). One passive (P1:data) and two or more (ETm :data) active cells were used to screen each compound.
A 10 mM (1 ml) aqueous solution of testosterone drug/prodrug was placed in the donor (unstirred) compartment and the receptor (stirred) was filled with 2.5 ml of PBS. In order to check for egress due to e.g. damaged skin, a zero hour sample of receptor ([…]) was taken one half hour after the drug solution was placed in the donor compartment. Replacement fluid of equal sample volume was added to the receptor compartment immediately after samples were taken.
Anodic electrotransport was achieved using a silver wire (immersed in a polyvinylalcohol-based salt bridge to minimize junction potential) in the donor compartment and a AgCl cathode in the receptor. […] The electrotransport cells were connected in series and constant current (100 uA/cm^2, […] for a skin area of 0.64 cm^2) and temperature (32° C.) were supplied to each cell. After six hours of active/passive transport, aliquots (200 ul) of the receptor were sampled and immediately analyzed by HPLC.
A standard plot of peak area and concentration for each compound was constructed using HPLC. The peak areas of the samples were determined and the concentrations calculated using the standard data. Cumulative flux was calculated using Quickbasic and reported in nmol/cm^2 /hr.

in vitro [2] = format: in vitro ADME; conditions: 37° C.; for half-life: human, serum
Method: The hydrolytic activity of the sterol prodrug may be evaluated by studies of the chemical or enzymatic conversion of the prodrug to the unmodified parent compound, as described in Example 26.
Generally, the sterol/chemical modifier complex is dissolved in a minimum amount of a suitable solvent, such as ethanol, and the resulting solution is added to a sample of human serum. Following incubation, aliquots are then removed at various time points and analyzed to determine the extent of hydrolysis. Table I herein lists the representative serum half-lives of a number of testosterone prodrugs according to the present invention.
The rates of conversion are readily determined, for example by spectrophotometric methods or by gas-liquid or high performance liquid chromatography. Half-lives and other kinetic parameters may then be calculated using standard techniques.
Determination of Testosterone Prodrug Hydrolysis in Serum
Stock solutions (6 mM) of the testosterone prodrugs were prepared in ethanol (dissolution was accomplished by vortexing, sonication, or warming at 37° C., as needed). If required for dissolution, one drop of a co-solvent such as dimethylsulfoxide, dimethylformamide or methanol was added. (Acetonitrile is undesirable because it deactivates the serum enzymes).
HPLC separation methods were established for each study by dilution of the above stock solutions (6 μl) in acetonitrile (1 ml) to form 36 μM solutions. Samples (10 μl) were injected onto a Nucleosil 5C8 column (250×4 mm ID) fitted with an additional guard column (11×4 mm ID) and eluted with a mobile phase of approximately 65% HPLC grade water and 35% trifluoroacetic acid in acetonitrile (0.1% TFA in acetonitrile). Exact proportions of the mobile phase eluents were adjusted in each case to give optimum separation and run times.
Freshly defrosted human serum (3 ml, Sigma) was warmed at 37° C. for five minutes and then the testosterone prodrug stock solution (60 μl) was added with vortexing. […] The aliquots were added to 800 μl of 2% zinc sulfate solution in a 1.5 ml disposable microcentrifuge tube, vortexed immediately and centrifuged at 14,000 RPM for 3 minutes. The supernatants (10 μl) were injected onto the HPLC and peak areas used to determine the percent of parent drug formed or percent of prodrug remaining. Serum blanks were prepared similarly by addition of serum to the zinc sulfate solution, followed by centrifugation. Initial (time=0) samples were prepared by adding serum to the zinc sulfate solution, followed by addition of the complex and separation by centrifugation. The time=0 samples, as well as the original stock solutions, were also used to assess the stability of the complex in the absence of enzyme. Half-lives were determined using the following equation : […]
and plotting time (x ordinate) versus the natural logarithm of percent remaining prodrug (y ordinate) to obtain the slope (m) and the y intercept (b).

in vitro [3] = format: cell-based, human; conditions: human, dermal fibroblasts, MTT; for CC50 at 2 h: IC50 2 h (cytotoxicity), 2 h incubation; for CC50 at 16 h: IC50 16 h (cytotoxicity), 16 h incubation
Method: As discussed above, the chemical modifier, when present in the subject in its free or released form, and in appropriately administered amounts, should preferably be non-toxic. Additionally, any further in vivo degradation products of the chemical modifier should be non-toxic, as well. Table 2 provides in vitro relative cytotoxicity data for a number of testosterone/chemical modifier complexes, prepared in accordance with the invention. The cytotoxicity assessment was carried out by examining the viability of human dermal fibroblasts in the presence of a number of testosterone/chemical modifier complexes in accordance with the present invention. Details of the experimental protocol are summarized in Example 27.
The viability of human dermal fibroblasts in the presence of the 17-hydroxy sterol/chemical modifier compounds was assayed using MTT (3-[4,5-dimethylthiazol-2-yl]-2,5-diphenyltetrazolium bromide) reduction to formazan by mitochondrial enzymes as an indicator of cytotoxicity (Swisher, et al.). Confluent fibroblast cells were incubated for 2 or 16 hours in the presence of increasing concentrations of drug complex. At the end of the incubation period, medium was replaced for 4 hours by medium containing the tetrazolium salt, MTT. Metabolism of MTT to a blue formazan was quantitated by spectrophotometry at 540 nm.

[4] = Steady state flux across human skin (iontophoretic); format: in vitro ADME
Method: Another useful factor for in vitro assessment of skin permeability of a target drug or drug complex is steady state flux. Typically, when performing a kinetic analysis of the skin-penetrating ability of a target compound through a membrane, such as skin, such an analysis includes an assessment of the lag time and the steady state flux or permeation rate. The ideal membrane for such determinations is human skin.
Steady state flux across human skin was determined for three distinct testosterone/chemical modifier complexes, as shown in FIG. 5 and in Table 4. In FIG. 5, iontophoretic flux rates over time are plotted for testosterone-17β-stachydrine ester, chloride salt [2.9], (closed circles), testosterone-17β-(L-carnitine ethyl ester) carbonate, iodide salt [1.7] (solid squares), and testosterone-17β-choline carbonate, bromide salt [1.4] (open circles). […] Steady state flux values in FIG. 5 are expressed as testosterone equivalents in units of μg/cm^2 h.
Iontophoretically-induced steady state flux across human skin was determined for three distinct testosterone/chemical modifier complexes, testosterone-17β-stachydrine ester, chloride salt [2.9], testosterone-17β-(L-carnitine ethyl ester) carbonate, iodide salt [1.7], and testosterone-17β-choline carbonate, bromide salt [1.4]. The in vitro skin flux experiments were carried out in a similar fashion to those described above, with the exception that human skin was used as the membrane.
Steady state flux values provide an indication of the total amount of drug (or drug complex) that can penetrate the skin, under a given set of experimental conditions.

[5] = Water solubility (H2O sol); conditions: for solubility: H2O sol
[6] = footnote 1: prodrug remaining, no testosterone formed

Structure (SMILES) | Flux, active electrotransport (ET) [1] [nmol/cm^2 /hr] | half-life (in vitro [2]; sample of 82% purity) [h] | CC50 at 2 h (in vitro [3]) [µM] | CC50 at 16 h (in vitro [3]) [µM] | Steady State Flux ([4]; iontophoresis (Table 4)) [nmole/cm^2 /h] | H2O sol [5] [mg/mL] | Degradation (Degradation (%/d)) [%/d] | half-life (in vitro [2]; HPLC) [h] | Steady State Flux ([4]; iontophoresis) [nmol/cm^2 /h] | Steady state flux compared with the other two complexes (1.4, 1.7) ([4]; iontophoresis) | solubility [5] [mg/mL] | Enhancement in in vitro electrotransport skin flux compared to testosterone [1] [fold] | Serum half-life (in vitro [2]; human serum, HPLC, hydrochloride salt) [h] | half-life (in vitro [2]; [6]) [h]
CCOC(=O)C[C@H](C[N+](C)(C)C)OC(=O)O[C@H]1CC[C@H]2[C@@H]3CCC4=CC(=O)CC[C@]4(C)[C@H]3CC[C@]12C [Code 1.7, testosterone-17β-(L-carnitine ethyl ester) carbonate, iodide salt] | 3.6 ± 1.3 | 4.2 | 913 | 849 | 75 ± 14 | 5.3 | 0 |  |  |  |  |  |  | 
C[C@]12CC[C@H]3[C@@H](CCC4=CC(=O)CC[C@@]43C)[C@@H]1CC[C@@H]2OC(=O)[C@@H]1CCC[N+]1(C)C [Code 2.9, testosterone-17β-stachydrine ester, chloride salt] |  |  | 2130 | 750 | 184 ± 30 |  | 0 | 13.7 | 184 | greater than twice that of either of the other two testosterone/chemical modifier complexes | 22 |  |  | 
C[C@]12CC[C@H]3[C@@H](CCC4=CC(=O)CC[C@@]43C)[C@@H]1CC[C@@H]2OC(=O)C=CC[N+](C)(C)C [Code 3.8, testosterone-17β-[(4-N,N,N-trimethylammonio) crotonate], chloride salt] | 9.4 ± 1.2 |  | 2290 | 583 |  |  | 0 | 122 |  |  | 21 | ≥ 10 |  | 
CC(=O)O[C@@H]1C[C@@H](C(=O)O[C@H]2CC[C@H]3[C@@H]4CCC5=CC(=O)CC[C@]5(C)[C@H]4CC[C@]23C)[N+](C)(C)C1 [Code 2.6, testosterone-17β-[(O-acetyl)-betonicinyl ester], chloride salt] | 0 |  | 733 | 271 |  |  | 0 | 8.2 |  |  | 21 |  |  | 
COC(=O)[C@H](COC(=O)O[C@H]1CC[C@H]2[C@@H]3CCC4=CC(=O)CC[C@]4(C)[C@H]3CC[C@]12C)N(C)C [Code 3.6, testosterone-17β-(N,N-dimethyl-L-serine methyl ester) carbonate, hydrochloride salt] | 6.8 ± 0.3 |  | 224 | 157 |  |  | 3.8 |  |  |  | 20 |  | 0.75 | 
C[C@]12CC[C@H]3[C@@H](CCC4=CC(=O)CC[C@@]43C)[C@@H]1CC[C@@H]2OC(=O)CCC[N+](C)(C)C [Code 2.3] | 2.0 ± 0.8 |  | 653 | 172 |  |  | 0 |  |  |  | 20 |  |  | ~15
C[n+]1cccc(C(=O)O[C@H]2CC[C@H]3[C@@H]4CCC5=CC(=O)CC[C@]5(C)[C@H]4CC[C@]23C)c1 [Code 2.8] | 3.1 ± 1.2 |  | 598 | 492 |  |  | 0 | 25.5 |  |  | 0.8 |  |  | 
C[C@]12CC[C@H]3[C@@H](CCC4=CC(=O)CC[C@@]43C)[C@@H]1CC[C@@H]2OC(=O)CC[N+](C)(C)C [Code 2.5, testosterone-17β-(N,N,N-trimethyl-β-alaninyl ester), bromide salt] | 18.0 ± 2.4 |  | > 600 | 329 |  |  | 0 |  |  |  | 0.3 | ≥ 10 |  | ~0.167
C[C@]12CC[C@H]3[C@@H](CCC4=CC(=O)CC[C@@]43C)[C@@H]1CC[C@@H]2OC(=O)Oc1ccc(CC[N+](C)(C)C)cc1 [Code 3.4, testosterone-17β-candicine carbonate, iodide salt] | 0 |  | 544 | 44.6 |  |  | 1 | 5.8 |  |  | 0.1 |  |  | 
C[C@]12CC[C@H]3[C@@H](CCC4=CC(=O)CC[C@@]43C)[C@@H]1CC[C@@H]2OC(=O)OCOC(=O)CCCCC[N+](C)(C)C [Code 3.2, testosterone-17β-[6-(N,N,N-trimethylammonio)hexanoyloxy-methyl]carbonate iodide salt] | 4.8 ± 0.6 |  | 615 | 406 |  |  | 77 | 0.217 |  |  | 20 |  |  | 
